In patent publication US11447486B2, “2-amino-benzimidazole derivatives and their use as 5-lipoxygenase and/or prostaglandin E synthase inhibitors” (INSTITUT PASTEUR KOREA, priority 2014, dated 2022):

Experiments:
[1] = molecular target: T1, human 5-LOX (Homo sapiens, UniProt P09917); test: 5-LOX enzyme activity, fluorescence method (5-HPETE, H2DCFDA); assay type: biochemical; details: read-out: 5-LO (IC50)
T1 construct: purchased Cayman 60402; host or cells: insect cells (lysate)
T1 sequence (P09917 1-674): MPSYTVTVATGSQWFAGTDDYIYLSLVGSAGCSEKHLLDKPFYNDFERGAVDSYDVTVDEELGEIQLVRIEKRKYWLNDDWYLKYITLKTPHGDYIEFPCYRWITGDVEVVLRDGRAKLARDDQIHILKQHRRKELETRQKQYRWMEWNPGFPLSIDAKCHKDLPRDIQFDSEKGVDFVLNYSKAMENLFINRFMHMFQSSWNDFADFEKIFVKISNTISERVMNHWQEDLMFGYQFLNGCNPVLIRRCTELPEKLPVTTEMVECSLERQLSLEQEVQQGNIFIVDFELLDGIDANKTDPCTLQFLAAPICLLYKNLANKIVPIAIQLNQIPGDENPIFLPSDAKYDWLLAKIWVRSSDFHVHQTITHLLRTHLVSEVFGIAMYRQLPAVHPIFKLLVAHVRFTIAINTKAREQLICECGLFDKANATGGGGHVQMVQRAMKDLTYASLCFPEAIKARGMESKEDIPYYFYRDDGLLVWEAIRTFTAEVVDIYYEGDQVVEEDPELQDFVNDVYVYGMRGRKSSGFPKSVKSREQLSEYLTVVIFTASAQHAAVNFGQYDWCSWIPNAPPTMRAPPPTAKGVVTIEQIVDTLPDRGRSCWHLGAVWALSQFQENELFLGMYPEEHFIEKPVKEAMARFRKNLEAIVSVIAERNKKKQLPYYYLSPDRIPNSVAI
Procedure: The activity of compounds against 5-LOX were determined by measuring LTB4 (leukotriene B4) levels and/or by a fluorescence method. Both approaches are outlined in more detail below;
The compound, in a dose response manner(0.5 nM to 10 uM), and enzyme mixture was pre-incubated for 5 minutes, and the enzymatic reaction was initiated by addition of ATP and arachidonic acid to a final concentration of 100 uM and 3 uM, respectively. […] All steps were carried out at room temperature.

[2] = test system: Rat basophilic leukemia (RBL) cells; test: LTB4 secretion assay in RBL (rat basophilic leukemia cells); assay type: cell-based; details: Rattus norvegicus, RBL
Procedure: Rat basophilic leukemia (RBL) cells (ATCC, Cat #CRL-2256) were maintained in EMEM (ATCC, Cat #30-2003) supplemented with 15% FBS. The day before RBL assay, cells were seeded at a concentration of 2×10^4 cells per well in 96-well plates. The media was replaced with 100 ul of EMEM supplemented with 0.5% FBS and compounds in dose response(5 nM to 100 uM) were added. After 15 min of pre-incubation at 37° C., arachidonic acid and calcium ionophore (A23187) were added to give a final concentration of 2.5 uM and 5 uM, respectively. After a further 10 min incubation at 37° C., culture supernatant was transferred and quantification of LTB4 was done with a Leukotriene B4 EIA kit (Cayman, Cat #520111) as instructed.

Row | Structure (SMILES) | IC50 [1] [µM] | EC50 [2] [µM]
1 | CC(C)c1cc(CNc2nc3ccc(N)cc3n2C)ccc1Oc1ncc(Cl)cn1 [Compound 395] | < 1 | < 10
2 | Cn1c(NCc2ccc(Oc3ccc(C(F)(F)F)cn3)cc2)nc2ccc(N)cc21 [Compound 276] | < 1 | < 10
3 | Cn1c(NCc2ccc(C(=O)Nc3ccc(Cl)cn3)cc2)nc2ccc(N)cc21 [Compound 310] | < 1 | > 20
4 | Cn1c(NCc2ccc(Oc3cnc(Cl)cn3)cc2)nc2ccc(N)cc21 [Compound 295] | < 1 | < 10
5 | Cn1c(NC2(c3ccc(Oc4ncc(Cl)cn4)cc3)CC2)nc2ccc(N)cc21 [Compound 472] | 1 to 10 | < 10
6 | CNC(=O)c1cnc(Oc2ccc(CNc3nc4ccc(N)cc4n3C)cc2)nc1 [Compound 462] | < 1 | > 20
7 | Cn1c(NCc2ccc(Oc3ccc(Cl)cn3)cc2)nc2ccc(NCCc3ccccn3)cc21 [Compound 329] | < 1 | < 10
8 | Cn1c(NCc2ccc(Oc3ncc(Cl)c4ccccc34)cc2)nc2ccc(N)cc21 [Compound 399] | < 1 | < 10
9 | Cn1c(NCc2ccc(Oc3ncc(-c4ccc(Cl)cc4)cn3)cc2)nc2ccc(N)cc21 [Compound 460] | < 1 | < 10
10 | CC(Cc1ccc(Cl)cc1Cl)Nc1nc2cc(N)ccc2n1Cc1ccccc1 (stereo not shown) [Compound 144] | < 1 | 10 to 20
11 | Cn1c(NCc2ccc(Oc3ncc(Cl)cn3)cc2)nc2ccc(NC3CNC3)cc21 [Compound 407] | < 1 | < 10
12 | CCC(Nc1nc2ccc(Nc3cc(C(F)(F)F)n(C)n3)cc2n1C)c1ccc(Oc2ncc(C(F)(F)F)cn2)cc1 (stereo not shown) [Compound 520] | > 10 | < 10
13 | Nc1nc2ccc(N3CCC(Oc4ccc(OC(F)(F)F)cc4)C3)cc2[nH]1 (stereo not shown) [Compound 63] | < 1 | 10 to 20
14 | Cc1ccc(Oc2ccc(CNc3nc4ccc(NC5COC5)cc4n3C)cc2)nn1 [Compound 312] | < 1 | > 20
15 | Fc1ccc(CCNc2nc3cc(NC4COC4)ccc3[nH]2)cc1 [Compound 33] | < 1 | < 10
16 | Cn1c(NCc2ccc(Oc3ccc(Cl)cn3)cc2)nc2ccc(NC3CNC3)cc21 [Compound 401] | < 1 | < 10
17 | Cc1ccc(Oc2ccc(CNc3nc4ccc(N)cc4n3C)cc2)nc1 [Compound 352] | < 1 | < 10
18 | CC(C)(CO)Nc1ccc2[nH]c(NCc3ccc(Cl)cc3F)nc2c1 [Compound 31] | < 1 | > 20
19 | CN(C)CCn1c(NCc2ccc(Oc3ccc(Cl)cn3)cc2)nc2ccc(NC3COC3)cc21 [Compound 332] | < 1 | < 10

Row | Structure (SMILES) | IC50 [1] [µM] | EC50 [2] [µM]
20 | CCOC(=O)c1coc(-c2ccc(CNc3ccc4[nH]c(N(C)C)nc4c3)cc2)n1 [Compound 218] | < 1 | < 10
21 | Cn1c(NCc2ccc(Oc3cc(Cl)ncn3)cc2)nc2ccc(N)cc21 [Compound 393] | < 1 | < 10
22 | CC(CC(F)(F)F)Nc1ccc2[nH]c(NCc3ccc(Oc4ccc(Cl)cc4)cc3)nc2c1 (stereo not shown) [Compound 134] | < 1 | < 10
23 | Cn1c(N2CCC(c3ccc(OC(F)(F)F)cc3)CC2)nc2ccc(N)cc21 [Compound 157] | < 1 | > 20
24 | Cn1c(NCc2ccc(OCc3ncco3)cc2)nc2ccc(N)cc21 [Compound 342] | < 1 | < 10
25 | CC(C)(C(=O)c1ccc(CNc2nc3ccc(N)cc3[nH]2)cc1)C(F)(F)F [Compound 205] | < 1 | < 10
26 | Cn1c(NCc2ccc(Oc3ncc(Cl)cn3)cn2)nc2ccc(NC3COC3)cc21 [Compound 355] | 1 to 10 | > 20
27 | Cn1c(NCc2ccc(Oc3ccc(OC(F)(F)F)cc3)cc2)nc2ccc(NC3COC3)cc21 [Compound 293] | < 1 | < 10
28 | Fc1ccc(OC2CCN(c3nc4cc(NC5COC5)ccc4[nH]3)CC2)cc1 [Compound 36] | < 1 | 10 to 20
29 | COC(c1ccc(CNc2nc3ccc(N)cc3[nH]2)cc1)c1ccccn1 (stereo not shown) [Compound 181] | < 1 | > 20
30 | FC(F)(F)Oc1ccc(OC2CCN(c3ccc4nc(NCCN5CCOCC5)[nH]c4c3)C2)cc1 (stereo not shown) [Compound 143] | < 1 | 10 to 20
31 | FC(F)(F)Oc1ccc(OC2CCN(c3ccc4nc(NCCCN5CCOCC5)[nH]c4c3)C2)cc1 (stereo not shown) [Compound 142] | < 1 | 10 to 20
32 | c1ccc(Oc2ccc(CNc3nc4cc(NC5CCC5)ccc4[nH]3)cc2)cc1 [Compound 96] | < 1 | < 10
33 | Cn1nc(CF)cc1Nc1ccc2nc(NCc3ccc(Oc4ncc(Cl)cn4)cc3)n(C)c2c1 [Compound 539] | < 1 | < 10
34 | CN(C(=O)c1ccc(CNc2nc3ccc(NC4COC4)cc3n2C)cc1)c1ccc(Cl)cn1 [Compound 320] | < 1 | > 20
35 | Nc1ccc2nc(NCc3ccc(Oc4ccc(Cl)cn4)cc3)n(C3COC3)c2c1 [Compound 261] | < 1 | < 10
36 | CC(C)c1cc(CNc2nc3ccc(NC4COC4)cc3n2C)ccc1Oc1ncc(Cl)cn1 [Compound 396] | < 1 | < 10
37 | O=S(=O)(c1ccc(Cl)cc1)c1ccc(CNc2nc3cc(NC4COC4)ccc3[nH]2)cc1 [Compound 133] | < 1 | 10 to 20
38 | Clc1ccc(Oc2ccc(CNc3nc4ccc(NC5COC5)cc4n3C3COC3)cc2)nc1 [Compound 266] | < 1 | 10 to 20

Row | Structure (SMILES) | IC50 [1] [µM] | EC50 [2] [µM]
39 | Cc1cnc(Oc2ccc(CNc3nc4ccc(N)cc4n3C)cc2)nc1 [Compound 348] | < 1 | > 20
40 | Cn1c(NCc2ccc(Oc3ncc(Br)cn3)cc2)nc2ccc(N)cc21 [Compound 361] | < 1 | < 10
41 | Cn1c(NCc2ccc(COc3ccc(Cl)cn3)cc2)nc2ccc(N)cc21 [Compound 304] | < 1 | < 10
42 | CN(C)c1nc2ccc(NCc3ccc(-c4cccc(=O)[nH]4)cc3)cc2[nH]1 [Compound 221] | < 1 | > 20
43 | Cn1c(NCc2ccc(Oc3ccc(Cl)cc3)nc2)nc2ccc(N)cc21 [Compound 287] | < 1 | < 10
44 | Nc1ccc2nc(N)n(Cc3ccc(Oc4nc5ccccc5o4)cc3)c2c1 [Compound 246] | < 1 | < 10
45 | Cn1c(NCc2ccc(Oc3ccc4c(Cl)cccc4n3)cc2)nc2ccc(N)cc21 [Compound 424] | < 1 | < 10
46 | FC1(F)CN(c2ccc3nc(NCc4ccc(Oc5ccc(Cl)cc5)cc4)[nH]c3c2)C1 [Compound 242] | 1 to 10 | < 10
47 | Cc1cc(Oc2ccc(Cl)cn2)cc(C)c1CNc1nc2ccc(NC3COC3)cc2n1C [Compound 335] | < 1 | < 10
48 | CC(C)(C(O)c1ccc(CNc2nc3ccc(N)cc3[nH]2)cc1)C(F)(F)F (stereo not shown) [Compound 198] | < 1 | 10 to 20
49 | Cn1c(NCc2ccc(Oc3ccc(Cl)cc3)cc2)nc2ccc(N3CC(O)C3)cc21 [Compound 192] | < 1 | < 10
50 | Cn1c(NCc2ccc(Oc3nc4cc(Cl)ccc4o3)cc2)nc2ccc(N)cc21 [Compound 402] | < 1 | < 10
51 | Cc1cc(Nc2ccc3nc(NCc4ccc(Oc5ncc(Cl)cn5)cc4)[nH]c3c2)n[nH]1 [Compound 485] | < 1 | 10 to 20
52 | Cn1c(NCc2ccc(Oc3ccc(Cl)cc3)cc2)nc2ccc(N3CCC3)cc21 [Compound 182] | < 1 | 10 to 20
53 | Cn1c(NCc2ccc(Oc3ccc4cc(Cl)ccc4n3)cc2)nc2ccc(NC3COC3)cc21 [Compound 390] | < 1 | < 10
54 | Cn1c(NCc2ccc(Oc3ccccn3)cc2)nc2ccc(N)cc21 [Compound 346] | < 1 | < 10
55 | Nc1ccc2[nH]c(N3CCC(Oc4ccc(OC(F)(F)F)cc4Cl)C3)nc2c1 (stereo not shown) [Compound 71] | < 1 | 10 to 20
56 | Cn1c(NCc2ccc(Oc3ncc4ccc(Cl)cc4n3)cc2)nc2ccc(NC3COC3)cc21 [Compound 444] | < 1 | 10 to 20
